Laboratory results published in US20090233950A1, “QUINAZOLINE DERIVATIVES” (priority 2006, published 2009).
pIC50: −log10 of the molar value.

Tests used:
PDGFRβ = biological target: T1, PDGFRβ (Homo sapiens, UniProt P09619); test: In vitro phospho-Tyr751 PDGFRβ ELISA assay (Test (b)), MG63 osteosarcoma cells stimulated with PDGFBB; format: cell-based; details: read-out: IC50 versus phospho-Tyr751 formation in PDGFRβ
T1 construct: endogenous in cells; host or cells: MG63 osteosarcoma cells (ATCC)
Description: (b) In Vitro phospho-Tyr751 PDGFRβ ELISA Assay
This assay uses a conventional ELISA method to determine the ability of test compounds to inhibit phosphorylation of tyrosine in PDGFRβ.
An MG63 osteosarcoma cell line [American Type Culture Collection (ATCC) CCL 1427] was routinely maintained at 37° C. with 7.5% CO2 in Dulbecco's modified Eagle's growth medium (DMEM; Sigma-Aldrich; Catalogue No. D6546) containing 10% foetal calf serum (FCS; Sigma-Aldrich; Catalogue No. F7524) and 2 mM L-glutamine (Invitrogen Ltd., Paisley, UK; Catalogue No. 25030-024).
For the assay, the cells were detached from the culture flask using a trypsin/ethylenediaminetetraacetic acid (EDTA) mixture (Invitrogen Ltd.; Catalogue No. 15400-054) and resuspended in a test medium comprising DMEM without phenol red (Sigma-Aldrich; Catalogue No. D5921) containing 1% charcoal-stripped foetal calf serum (FCS) (Sigma-Aldrich; Catalogue No. F7524, stripped by incubation with dextran-coated activated charcoal at 55° C. for 30 minutes with continuous stirring followed by removal of the charcoal by centrifugation and filter sterilisation) and 2 mM L-glutamine (Invitrogen Ltd., Catalogue No. 25030-024) to give 6×10^4 cells per ml. Aliquots (100 μl) were seeded into each of the wells of columns […] (excluding column 1) and rows B-G (excluding rows A and H) of a clear 96 well tissue culture plate (Corning Life Sciences, Koolhovenlaan, The Netherlands; Catalogue No. 3595) to give a density of about 6000 cells per well. Aliquots (100 μl) of culture media were placed in the outer wells to minimise edge effects. The cells were incubated overnight at 37° C. with 7.5% CO2 to allow the cells to adhere to the wells.
Test compounds were prepared as 10 mM stock solutions in DMSO and serially diluted as required with DMSO to give a range of concentrations. Aliquots (3 μl) of each compound concentration were added to test medium (300 μl) to create a second dilution range. Aliquots (16 μl) of each resultant compound concentration were added to the cells in each well. “Maximum” control cells received a dilution of DMSO plus test medium only. “Minimum” control cells received a reference PDGFR inhibitor (16 μl). The cells were incubated for 90 minutes at 37° C. with 7.5% CO2.
The resultant cells were stimulated with PDGFBB using the following procedure. A lyophilised powder of PDGFBB, (Sigma-Aldrich; Catalogue No. P4306) was mixed with sterile water to provide a stock solution of 10 μg/ml of PDGFBB. A dilution of this stock solution into test medium provided a 182 ng/ml PDGFBB solution. Aliquots thereof (44 μl) were added to compound treated cells and to the “Maximum” control cells. The “Minimum” control cells received medium only. The cells were incubated at 37° C. with 7.5% CO2 for 5 minutes. The solution from the wells was removed and the cells were lysed by the addition of 120 μl/well of RIPA buffer comprising 60 mM tris(hydroxymethyl)aminomethane hydrochloride (Tris-HCl), 150 mM sodium chloride, 1 mM EDTA, 1% v/v Igepal CA-630, 0.25% sodium deoxycholate, 1% v/v phosphatase inhibitor cocktail 1 P2850, 1% phosphatase inhibitor cocktail 2 P5726 and 0.5% v/v protease inhibitor cocktail P8340 (all chemicals and inhibitor cocktails were obtainable from the Sigma-Aldrich Company Ltd.). The resultant tissue culture plates were shaken for 5 minutes at ambient temperature to ensure full lysis and then frozen at −20° C. until required. […]

KDR (VEGFR2) = biological target: T2, KDR (VEGFR2) (Homo sapiens, UniProt P35968); test: In vitro phospho-KDR ELISA assay (Test (c)), HUVECs stimulated with VEGF; format: cell-based; details: read-out: IC50 versus phospho-tyrosine formation in KDR
T2 construct: phosphorylation of KDR expressed in human umbilical vein endothelial cells (HUVECs); host or cells: HUVECs
Description: (c) In Vitro phospho-KDR ELISA Assay
This assay uses a conventional ELISA method to determine the ability of test compounds to inhibit phosphorylation of tyrosine in KDR (VEGFR2).
Human umbilical vein endothelial cells (HUVECs; PromoCell) were routinely incubated at 37° C. with 7.5% CO2 in ‘growth medium’ comprising MCDB 131 (Gibco Catalogue No. 10372-019; 500 ml) containing L-glutamine (Sigma Catalogue No. G3126; 0.848 g), 1% Penicillin Streptomycin (Gibco Catalogue No. 15140-122) and Fetal Bovine Serum (PAA Laboratories Catalogue No. A15-043; 50 ml).
For the assay, the cells were detached from the culture flask using a trypsin/ethylenediaminetetraacetic acid (EDTA) mixture (Invitrogen Ltd.; Catalogue No. 15400-054) and resuspended in ‘test medium’ comprising MCDB 131 (500 ml) containing L-glutamine (0.848 g), 1% Penicillin Streptomycin and Fetal Bovine Serum (10 ml). Aliquots (1 ml) were seeded into each well of a 24 well tissue culture plate (Corning Life Sciences; Catalogue No. 3527) to give a density of approximately 3.5×10^4 cells per well. The cells were incubated overnight at 37° C. with 7.5% CO2 to allow adherence to the well surface. The following morning the assay medium was decanted and an aliquot (0.5 ml) of ‘serum free medium’ comprising MCDB 131 (500 ml) containing L-glutamine (0.848 g) and 1% Penicillin Streptomycin was added to each well. The plates were incubated at 37° C. for 2.5 hours.
Test compounds were prepared as 10 mM stock solutions in DMSO and serially diluted with DMSO as required. Aliquots (3 μl) of each concentration of test compound were diluted with ‘serum free medium’ (300 μl). Aliquots (50 μl) of each resultant compound concentration were added to the cells in each well. “Maximum” control cells received only a dilution of DMSO whereas the “minimum” controls received a reference KDR inhibitor to give a final concentration of 1 μM. The cells were incubated for 90 minutes at 37° C. with 7.5% CO2.
The resultant cells were stimulated with VEGF using the following procedure. A lyophilised powder of VEGF (Sigma-Aldrich; Catalogue No. V7259) was mixed with PBS containing 0.1% filter-sterilised BSA (0.1% BSA/PBS) to provide a stock solution of 10 μg/ml of VEGF. A dilution of this stock solution into ‘serum free medium’ provided a 1000 ng/ml VEGF solution. Aliquots thereof (50 μl) were added to all wells. The cells were incubated at 37° C. with 7.5% CO2 for 5 minutes. The solution from the wells was removed and the cells were lysed by the addition of 100 μl/well of RIPA buffer comprising 60 mM Tris-HCl, 150 mM sodium chloride, 1 mM EDTA, 1% v/v Igepal CA-630, 0.25% sodium deoxycholate, 1% v/v phosphatase inhibitor cocktail 1 P2850, 1% phosphatase inhibitor cocktail 2 P5726 and 0.5% v/v protease inhibitor cocktail P8340. […]

T2 sequence (P35968 20-1356): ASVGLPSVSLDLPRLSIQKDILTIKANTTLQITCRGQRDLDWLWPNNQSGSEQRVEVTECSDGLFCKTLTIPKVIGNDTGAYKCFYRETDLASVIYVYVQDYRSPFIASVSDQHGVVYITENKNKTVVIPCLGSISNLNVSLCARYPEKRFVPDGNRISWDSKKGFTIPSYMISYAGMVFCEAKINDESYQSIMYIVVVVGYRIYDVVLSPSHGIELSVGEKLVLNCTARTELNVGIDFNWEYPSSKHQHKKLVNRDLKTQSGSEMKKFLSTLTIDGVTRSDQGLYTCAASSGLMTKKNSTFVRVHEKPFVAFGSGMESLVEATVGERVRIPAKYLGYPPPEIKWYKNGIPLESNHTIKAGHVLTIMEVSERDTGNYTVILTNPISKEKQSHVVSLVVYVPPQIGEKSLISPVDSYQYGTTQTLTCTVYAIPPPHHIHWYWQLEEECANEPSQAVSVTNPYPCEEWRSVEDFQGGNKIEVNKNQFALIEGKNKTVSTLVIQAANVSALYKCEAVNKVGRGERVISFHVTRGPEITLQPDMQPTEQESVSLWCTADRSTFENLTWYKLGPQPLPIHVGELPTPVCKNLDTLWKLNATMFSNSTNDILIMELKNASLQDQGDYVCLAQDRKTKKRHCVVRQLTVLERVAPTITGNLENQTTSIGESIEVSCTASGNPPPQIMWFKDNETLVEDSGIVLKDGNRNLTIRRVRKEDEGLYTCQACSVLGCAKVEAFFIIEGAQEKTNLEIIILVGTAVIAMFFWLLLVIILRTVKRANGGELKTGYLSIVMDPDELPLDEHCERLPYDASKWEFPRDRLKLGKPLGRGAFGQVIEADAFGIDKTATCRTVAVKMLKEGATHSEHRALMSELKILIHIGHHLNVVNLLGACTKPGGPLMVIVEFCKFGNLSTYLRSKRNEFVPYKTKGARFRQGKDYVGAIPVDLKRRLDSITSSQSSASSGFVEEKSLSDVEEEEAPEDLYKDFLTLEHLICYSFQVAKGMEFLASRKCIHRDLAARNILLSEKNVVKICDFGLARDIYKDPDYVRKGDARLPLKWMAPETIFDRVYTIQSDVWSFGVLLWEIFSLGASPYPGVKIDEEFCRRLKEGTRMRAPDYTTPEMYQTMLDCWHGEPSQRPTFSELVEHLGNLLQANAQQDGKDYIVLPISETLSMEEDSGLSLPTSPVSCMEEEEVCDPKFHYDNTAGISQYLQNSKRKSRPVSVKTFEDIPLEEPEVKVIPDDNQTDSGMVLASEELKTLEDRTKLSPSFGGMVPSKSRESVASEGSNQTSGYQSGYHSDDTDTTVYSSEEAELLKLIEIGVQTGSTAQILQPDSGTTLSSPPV
T1 sequence (P09619 33-1106): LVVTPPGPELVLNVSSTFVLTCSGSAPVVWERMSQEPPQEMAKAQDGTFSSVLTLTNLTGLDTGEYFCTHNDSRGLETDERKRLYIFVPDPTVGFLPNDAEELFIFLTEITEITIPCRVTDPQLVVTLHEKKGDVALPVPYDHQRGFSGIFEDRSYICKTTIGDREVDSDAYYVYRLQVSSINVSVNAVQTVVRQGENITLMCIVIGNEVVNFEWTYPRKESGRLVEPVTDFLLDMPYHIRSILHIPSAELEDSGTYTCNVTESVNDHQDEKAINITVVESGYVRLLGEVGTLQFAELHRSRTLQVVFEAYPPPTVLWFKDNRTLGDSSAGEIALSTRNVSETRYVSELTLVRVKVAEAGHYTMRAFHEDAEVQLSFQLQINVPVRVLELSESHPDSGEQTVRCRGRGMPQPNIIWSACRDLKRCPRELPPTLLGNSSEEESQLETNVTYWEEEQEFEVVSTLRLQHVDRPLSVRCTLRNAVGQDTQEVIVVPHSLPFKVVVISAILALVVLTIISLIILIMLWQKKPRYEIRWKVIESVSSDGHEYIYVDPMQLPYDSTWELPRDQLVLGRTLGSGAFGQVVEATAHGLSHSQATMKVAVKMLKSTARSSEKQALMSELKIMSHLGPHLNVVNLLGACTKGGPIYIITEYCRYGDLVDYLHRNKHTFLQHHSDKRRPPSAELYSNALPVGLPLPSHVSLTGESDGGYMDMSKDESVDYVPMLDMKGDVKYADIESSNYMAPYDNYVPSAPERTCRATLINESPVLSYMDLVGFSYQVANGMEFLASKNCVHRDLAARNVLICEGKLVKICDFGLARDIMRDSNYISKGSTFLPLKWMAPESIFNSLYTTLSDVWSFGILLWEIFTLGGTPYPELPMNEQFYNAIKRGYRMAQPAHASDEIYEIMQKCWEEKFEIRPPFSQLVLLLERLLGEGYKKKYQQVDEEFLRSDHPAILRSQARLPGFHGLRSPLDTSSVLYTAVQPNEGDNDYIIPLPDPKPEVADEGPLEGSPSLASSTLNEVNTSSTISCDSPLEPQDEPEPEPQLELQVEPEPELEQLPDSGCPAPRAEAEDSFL

| pIC50 (PDGFRβ) | pIC50 (KDR (VEGFR2)) | Structure (SMILES) |
| --- | --- | --- |
| ~8.30 | ~8.70 | COc1cc2ncnc(Oc3ccc(CC(=O)Nc4nc(C)c(C)s4)nc3)c2cc1OC [Example 1, N-(4,5-dimethylthiazol-2-yl)-2-[5-(6,7-dimethoxyquinazolin-4-yloxy)pyridin-2-yl]acetamide] |
| ~7.60 | – | CCn1cc(NC(=O)Cc2ccc(Oc3ncnc4cc(OC)c(OC)cc34)cn2)cn1 [N-(1-ethyl-1H-pyrazol-4-yl)-2-[5-(6,7-dimethoxyquinazolin-4-yloxy)pyridin-2-yl]acetamide] |
| ~7.60 | ~6.52 | COc1cc2ncnc(Oc3ccc(CC(=O)Nc4cc(C)on4)nc3)c2cc1OC [N-(5-methylisoxazol-3-yl)-2-[5-(6,7-dimethoxyquinazolin-4-yloxy)pyridin-2-yl]acetamide] |

The remaining lines, values behind:

| Structure (SMILES) | pIC50 (PDGFRβ) | pIC50 (KDR (VEGFR2)) |
| --- | --- | --- |
| CCn1cc(NC(=O)Cc2ncc(Oc3ncnc4cc(OC)c(OC)cc34)cc2OC)cn1 [Example 7, N-(1-ethyl-1H-pyrazol-4-yl)-2-[5-(6,7-dimethoxyquinazolin-4-yloxy)-3-methoxypyridin-2-yl]acetamide] | ~8.00 | < 5.52 |
| COc1cc2ncnc(Oc3cnc(CC(=O)Nc4cnn(C(C)C)c4)c(OC)c3)c2cc1OC [Example 8, N-(1-isopropyl-1H-pyrazol-4-yl)-2-[5-(6,7-dimethoxyquinazolin-4-yloxy)-3-methoxypyridin-2-yl]acetamide] | ~8.30 | < 5.30 |
